# Laboratory results taken from ChEMBL document CHEMBL5338738, “Discovery of Novel Sesquiterpene Lactone Derivatives as Potent PKM2 Activators for the Treatment of Ulcerative Colitis” (J Med Chem, 2023).
# Activity calls are given as the source filed them. The calls are words filed in the database; no cut-off is given here.
# Columns and labels:
# CD4+ve Th [1] = assay: Inhibition of Th17 cells differentiation in anti-CD3/CD28 stimulated C57BL/6 mouse mesenteric lymph node CD4+ve Th cells assessed as decrease in PKM2 expression in nucleus at 0.1 to 3 uM incubated for 96 hrs in presence of recombinant human TGF-beta, recombinant mouse IL-6 and recombinant mouse IL-23 by Western blot analysis; type: functional, cell-based; settings: dose 0.1-3 µM
# CD4+ve Th [2] = assay: (§1) Inhibition of aerobic glycolysis in anti-CD3/CD28 stimulated C57BL/6 mouse mesenteric lymph node CD4+ve Th cells assessed as downregulation of Hk2 mRNA expression level at 0.3 to 3 uM incubated for 96 hrs in presence of recombinant human TGF-beta, recombinant mouse IL-6 and recombinant mouse IL-23 by qPCR analysis; type: functional, cell-based; settings: dose 0.3-3 µM
# CD4+ve Th [3] = assay: Inhibition of Treg cells differentiation in anti-CD3/CD28 stimulated C57BL/6 mouse mesenteric lymph node CD4+ve Th cells assessed as change in IL10 mRNA expression level cells at 0.1 to 3 uM incubated for 96 hrs in presence of recombinant human TGF-beta by qPCR analysis; type: functional, cell-based; settings: dose 0.1-3 µM
# [4] = Genotoxicity in Salmonella typhimurium by AMES test; type: toxicity; settings: salmonella enterica subsp. enterica serovar typhimurium
# CD4+ve Th [5] = assay: Effect on apoptosis in C57BL/6 mouse mesenteric lymph node CD4+ve Th cells assessed as apoptotis rate at 0.3 to 3 uM incubated for 96 hrs by Annexin-V/PI staining based flow cytometry; type: functional, cell-based; settings: dose 0.3-3 µM
# Mus musculus [6] = assay: Anti-colitis activity against DSS-induced ulcerative colitis C57BL/6 mouse model assessed as reduction in inflammatory cell infiltration in colon at 12.5 to 25 mg/kg, po for 10 days consecutively by H and E staining based microscopic analysis; type: functional, organism-based; settings: dose 12.5-25 mg/kg, time 10.0 day
# Mus musculus [7] = assay: Anti-colitis activity against DSS-induced ulcerative colitis C57BL/6 mouse model assessed as decrease in TNF-alpha mRNA expression level in colon at 12.5 to 25 mg/kg, po for 10 days consecutively by qPCR analysis; type: functional, organism-based; settings: dose 12.5-25 mg/kg, time 10.0 day
# [8] = Toxicity in C57BL/6 mouse assessed as histological change in heart at 6.25 to 25 mg/kg, po for 10 days consecutively by H and E staining based microscopy; type: organism-based; settings: in vivo, 240 h, dose 6.25-25 mg/kg, time 10 day
# [9] = Oral bioavailability in Sprague-Dawley rat at 75 mg/kg and measured upto 24 hrs by LC-MS/MS analysis; type: ADME, organism-based; settings: in vivo
# Mus musculus [10] = assay: Anti-colitis activity against DSS-induced ulcerative colitis C57BL/6 mouse model assessed as reduction in mucosal damage in colon at 12.5 to 25 mg/kg, po for 10 days consecutively by H and E staining based microscopic analysis; type: functional, organism-based; settings: dose 12.5-25 mg/kg, time 10.0 day
# Mus musculus [11] = assay: Anti-colitis activity against DSS-induced ulcerative colitis C57BL/6 mouse model assessed as downregulation of IL10 mRNA expression level in mesenteric lymph nodes at 6.25 to 25 mg/kg, po for 10 days consecutively by qPCR assay; type: functional, organism-based; settings: dose 6.25-25 mg/kg, time 10.0 day
# Pyruvate kinase PKM [12] = molecular target: T1, Pyruvate kinase PKM (Homo sapiens, UniProt P14618); assay: Covalent binding affinity to recombinant human PKM2 at Cys424 residue at 20 uM incubated for 120 mins by LC-MS/MS analysis; settings: filed as activator
# Target sequence in this assay (P14618 2-531 limits assumed): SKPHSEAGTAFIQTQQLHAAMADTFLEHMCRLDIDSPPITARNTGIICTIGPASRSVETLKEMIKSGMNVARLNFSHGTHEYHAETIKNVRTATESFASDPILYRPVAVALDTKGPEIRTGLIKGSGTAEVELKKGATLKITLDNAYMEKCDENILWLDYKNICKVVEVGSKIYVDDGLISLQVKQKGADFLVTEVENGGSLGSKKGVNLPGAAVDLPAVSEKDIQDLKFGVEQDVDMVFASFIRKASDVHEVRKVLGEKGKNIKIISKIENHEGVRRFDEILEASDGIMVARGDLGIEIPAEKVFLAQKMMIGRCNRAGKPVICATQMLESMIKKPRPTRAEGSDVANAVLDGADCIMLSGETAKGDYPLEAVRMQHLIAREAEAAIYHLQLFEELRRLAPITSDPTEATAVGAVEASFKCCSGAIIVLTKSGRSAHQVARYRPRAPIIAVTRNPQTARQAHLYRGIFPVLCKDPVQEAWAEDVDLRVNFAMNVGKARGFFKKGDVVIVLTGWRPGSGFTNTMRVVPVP
# [13] = Inhibition of Treg cells differentiation in anti-CD3/CD28 stimulated C57BL/6 mouse mesenteric lymph node CD4+ve Th cells assessed as decrease in proportion of Foxp3-positive Treg cells at 1 uM incubated for 96 hrs in presence of recombinant human TGF-beta by flow cytometry (Rvb= 21.1%); type: functional; settings: C57BL/6, CD4+ve Th
# Mus musculus [14] = assay: Anti-colitis activity against TNBS-induced ulcerative colitis BALB/c mouse model assessed as increase in survival rate at 12.5 to 25 mg/kg, po for consecutive 7 days; type: functional, organism-based; settings: dose 12.5-25 mg/kg, time 7.0 day
# [15] = Tmax in Sprague-Dawley rat at 8 mg/kg,iv and measured upto 24 hrs by LC-MS/MS analysis; type: ADME, organism-based; settings: in vivo
# Mus musculus [16] = assay: Anti-colitis activity against DSS-induced ulcerative colitis C57BL/6 mouse model assessed as increase in colon length at 12.5 to 25 mg/kg, po for 10 days consecutively; type: functional, organism-based; settings: dose 12.5-25 mg/kg, time 10.0 day
# Pyruvate kinase PKM [17] = molecular target: T1, Pyruvate kinase PKM; assay: Activation of PKM2 (unknown origin) incubated for 30 mins
# Target sequence in this assay (P14618 whole entry): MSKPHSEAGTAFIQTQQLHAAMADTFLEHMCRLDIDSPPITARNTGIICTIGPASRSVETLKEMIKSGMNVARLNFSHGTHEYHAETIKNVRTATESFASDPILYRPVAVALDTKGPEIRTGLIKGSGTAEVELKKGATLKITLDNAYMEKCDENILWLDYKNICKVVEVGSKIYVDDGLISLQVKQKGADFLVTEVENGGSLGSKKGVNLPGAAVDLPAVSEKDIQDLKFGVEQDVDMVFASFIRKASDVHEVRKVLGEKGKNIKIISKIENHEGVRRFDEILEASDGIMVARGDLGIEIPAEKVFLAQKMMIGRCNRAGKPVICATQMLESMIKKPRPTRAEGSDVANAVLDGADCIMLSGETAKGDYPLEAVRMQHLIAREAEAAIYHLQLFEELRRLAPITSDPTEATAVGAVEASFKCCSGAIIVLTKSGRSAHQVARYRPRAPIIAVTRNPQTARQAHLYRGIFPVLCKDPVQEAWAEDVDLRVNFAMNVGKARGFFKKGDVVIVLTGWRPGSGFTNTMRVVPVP
# [18] = Toxicity in C57BL/6 mouse assessed as histological change in spleen at 6.25 to 25 mg/kg, po for 10 days consecutively by H and E staining based microscopy; type: organism-based; settings: in vivo, 240 h, dose 6.25-25 mg/kg, time 10 day
# Mus musculus [19] = assay: Anti-colitis activity against DSS-induced ulcerative colitis C57BL/6 mouse model assessed as downregulation of Foxp3 mRNA expression level in mesenteric lymph nodes at 6.25 to 25 mg/kg, po for 10 days consecutively by qPCR assay; type: functional, organism-based; settings: dose 6.25-25 mg/kg, time 10.0 day
# CD4+ve Th [20] = assay: as §1, with “Pfk1” for “Hk2”; type: functional, cell-based; settings: dose 0.3-3 µM
# [21] = Microsomal stability in rat liver microsomes assessed as hepatic clearance; type: ADME, Microsome
# [22] = Microsomal stability in rat liver microsomes assessed as half life; type: ADME, Microsome
# Mus musculus [23] = assay: Anti-colitis activity against TNBS-induced ulcerative colitis BALB/c mouse model assessed as decrease in infiltration of inflammatory cells into lamina propria in colon at 12.5 to 25 mg/kg, po for consecutive 7 days by H and E staining based microscopy; type: functional, organism-based; settings: dose 12.5-25 mg/kg, time 7.0 day
# Mus musculus [24] = assay: Anti-colitis activity against DSS-induced ulcerative colitis C57BL/6 mouse model assessed as downregulation of Foxp3 mRNA expression level in spleen at 6.25 to 25 mg/kg, po for 10 days consecutively by qPCR assay; type: functional, organism-based; settings: dose 6.25-25 mg/kg, time 10.0 day
# Mus musculus [25] = assay: Anti-colitis activity against DSS-induced ulcerative colitis C57BL/6 mouse model assessed as downregulation of IL10 mRNA expression level in spleen at 6.25 to 25 mg/kg, po for 10 days consecutively by qPCR assay; type: functional, organism-based; settings: dose 6.25-25 mg/kg, time 10.0 day
# [26] = molecular target: Pyruvate kinase PKM (Mus musculus) (UniProt P52480); assay: Binding affinity to PKM2 in C57BL/6 mouse mesenteric lymph node CD4+ve Th cells assessed as increase in denaturation temperature at 3 uM incubated for 4 hrs by […] analysis; settings: filed as activator
# [27] = AUCt in Sprague-Dawley rat at 8 mg/kg,iv and measured upto 24 hrs by LC-MS/MS analysis; type: ADME, organism-based; design: time < 24 hrs, dose 8 mg/kg, route iv; settings: in vivo
# Chain of Pyruvate kinase PKM (Mus musculus) (P52480 whole entry): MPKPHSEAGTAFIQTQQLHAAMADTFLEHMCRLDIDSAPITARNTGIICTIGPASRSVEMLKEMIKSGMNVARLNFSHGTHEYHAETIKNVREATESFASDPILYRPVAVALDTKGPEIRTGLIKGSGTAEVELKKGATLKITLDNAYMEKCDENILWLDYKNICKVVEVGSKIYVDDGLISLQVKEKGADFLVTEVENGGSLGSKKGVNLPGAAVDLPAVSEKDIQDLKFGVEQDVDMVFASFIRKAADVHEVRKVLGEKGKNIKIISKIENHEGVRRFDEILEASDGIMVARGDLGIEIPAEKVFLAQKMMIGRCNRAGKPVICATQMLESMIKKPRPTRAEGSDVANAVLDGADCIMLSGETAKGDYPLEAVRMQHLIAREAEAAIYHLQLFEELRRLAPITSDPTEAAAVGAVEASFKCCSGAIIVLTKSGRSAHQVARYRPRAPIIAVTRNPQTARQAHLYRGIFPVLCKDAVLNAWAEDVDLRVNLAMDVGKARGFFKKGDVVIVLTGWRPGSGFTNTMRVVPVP
structure (smiles),measurement,setting,value
C=C1C(=O)O[C@H]2[C@H]1CC[C@@]1(C)[C@@H](CC[C@@]3(C)O[C@@H]23)C1(F)F,inhibition,CD4+ve Th [1],Active
same,inhibition,CD4+ve Th [2],Active
same,inhibition,CD4+ve Th [3],inactive
same,Activity,[4],Non-Toxic
same,Activity,CD4+ve Th [5],inactive
same,Activity,Mus musculus [6],Active
same,Activity,Mus musculus [7],Active
same,Activity,[8],Non-Toxic
same,bioavailability,[9],2.8%
same,Activity,Mus musculus [10],Active
same,Activity,Mus musculus [11],inactive
same,Activity,Pyruvate kinase PKM [12],Active
same,Foxp3+ cells at 1 µM,[13],22.8%
same,Activity,Mus musculus [14],Active
same,Tmax,[15],4.98 min
same,Activity,Mus musculus [16],Active
same,EC50,Pyruvate kinase PKM [17],202 nM
same,Activity,[18],Non-Toxic
same,Activity,Mus musculus [19],inactive
same,inhibition,CD4+ve Th [20],Active
same,CLhep predicted,[21],43.1 mL/min/kg
same,half-life,[22],12.6 min
same,Activity,Mus musculus [23],Active
same,Activity,Mus musculus [24],inactive
same,Activity,Mus musculus [25],inactive
same,ΔTm,[26],6 °C
same,AUC(0-t) at 24 h,[27],1230 ng·h/mL
